Measurements published in PubChem BioAssay (NCI).
Several values for one entry are separate records, joined by “and”; a condition that tells them apart may be missing. Equal entries are not always repeated.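 Test compounds were applied to cells in 96-well plates for 48 hours at 5 doses. The concentration for 50% growth inhibition is given as GI50. The concentration for full growth arrest is given as TGI.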

Key:
Experiment in all cases: DTP human tumour cell line panel, 48 h
A498 renal = tested on: A498 renal
DU-145 prostate = tested on: DU-145 prostate
K-562 leukemia = tested on: K-562 leukemia
M14 melanoma = tested on: M14 melanoma
NCI-H522 lung = tested on: NCI-H522 lung
NCI/ADR-RES ovarian = tested on: NCI/ADR-RES ovarian
PC-3 prostate = tested on: PC-3 prostate
SR leukemia = tested on: SR leukemia

Compound | GI50 (A498 renal) | TGI (A498 renal) | GI50 (DU-145 prostate) | TGI (DU-145 prostate) | GI50 (K-562 leukemia) | TGI (K-562 leukemia) | GI50 (M14 melanoma) | TGI (M14 melanoma) | GI50 (NCI-H522 lung) | TGI (NCI-H522 lung) | GI50 (NCI/ADR-RES ovarian) | TGI (NCI/ADR-RES ovarian) | GI50 (PC-3 prostate) | TGI (PC-3 prostate) | GI50 (SR leukemia) | TGI (SR leukemia)
CN(Cc1ccccc1)c1ncnc2ccc(Br)cc12 | 4.8 µM | 17.1 µM | 14.6 µM | 28.7 µM | 4.4 µM | 18.6 µM | 12.9 µM | 25.7 µM | 23.1 µM | > 100 µM | 8.94 µM | 33.3 µM | 11.7 µM | 33.4 µM | 16.5 µM | 38 µM
O=C1c2cccc3c([N+](=O)[O-])ccc(c23)C(=O)N1CCCCl | > 10 µM | > 10 µM | 4.56 µM | > 10 µM | 3.04 µM | > 10 µM | 5.85 µM | > 10 µM | 4.34 µM | > 10 µM | 8.42 µM | > 10 µM | 7.49 µM | > 10 µM | 0.334 µM | > 10 µM
CC(C)C[C@H](NC(=O)[C@H](Cc1ccccc1)NC(=O)c1cnccn1)B(O)O | 0.000833 µM | < 0.01 µM and 0.00352 µM | 0.00311 µM | – | 0.00398 µM | > 100 µM | 0.00322 µM | < 0.0184 µM and 0.0321 µM | 0.00143 µM | < 0.215 µM and 0.00414 µM | 0.0613 µM | – | 0.0125 µM and 0.00364 µM | 0.197 µM and 0.0952 µM and 0.106 µM | 0.00219 µM | –
Nc1ncnc2c1ncn2C1OC(CO)CC1O (configuration not stated) | – | – | – | > 100 µM | – | 42.8 µM | – | > 100 µM | – | 38.7 µM | – | 55.2 µM | – | 40.4 µM | – | > 100 µM
C=C(C)[C@@H]1CC[C@]2(C(=O)N3CCN(C)CC3)CC[C@]3(C)[C@H](CC[C@@H]4[C@@]5(C)C/C(=C/c6ccncc6)[C@H](O)C(C)(C)[C@@H]5CC[C@]43C)[C@@H]12 | 17.4 µM | 41.1 µM | 9.53 µM | 24 µM | 2.79 µM | – | 3.44 µM | 12.6 µM | 5.24 µM | 25 µM | 4.81 µM | 23.2 µM | 2.75 µM | 16.7 µM | 2.72 µM | 10.2 µM
C=CC1CC12C(=O)C1OC2(C)C2C(=O)c3c(O)cccc3C(=O)C12 (configuration not stated) | – | – | – | – | 29.6 µM | 90.7 µM | 54.9 µM | > 100 µM | 39.8 µM | > 100 µM | 27.9 µM | 84.1 µM | 25.7 µM | 81.5 µM | – | –
S=P(C1CCCCC1)(C1CCCCC1)C(c1cccnc1)N1CCCC1 (configuration not stated) | – | 67.9 µM | – | 29.8 µM | – | 39.2 µM | – | 34.6 µM | – | 41.2 µM | – | 38.6 µM | – | 36.9 µM | – | 44.7 µM
CC1=CC[C@@H]2[C@@H](CC[C@@]2(C)O)C(C)(C)[C@H]1CC[C@@H]1[C@@]2(C)CC[C@@H](O)C(C)(C)O[C@@H]2CC[C@]1(C)O | – | 29.3 µM | – | > 100 µM | – | > 100 µM | – | 61.9 µM | – | – | – | – | – | > 100 µM | – | 42.8 µM
Nc1nc2ccccc2c2[nH]c3ccccc3c12 | 1.16 µM | 2.42 µM | 1.94 µM | 10.5 µM | – | – | 1.6 µM | 2.95 µM | 0.901 µM | 2.14 µM | – | – | – | – | 0.64 µM | 4.8 µM
COc1cc(/C=C/C(=O)c2ccc(F)cc2)ccc1OCCCCOc1cc2c(cc1OC)C(=O)N1CCCC1C=N2 (configuration not stated) | 0.882 µM | 5.48 µM | 0.994 µM | 5.46 µM | 0.62 µM | 4.05 µM | 2.11 µM | 4.08 µM | 1.64 µM | 4.35 µM | 0.936 µM | > 26.4 µM | 0.923 µM | 12.8 µM | 0.188 µM | 0.841 µM
